In experiment [1] the test system is CFPAC-1 cell line. Conditions: 72 hours; read-out: IC50 of gemcitabine against the CFPAC-1 cell line; cited from earlier work.
In experiment [2] the test system is CFPAC-1 cell line. The experiment in a line: MTS cytotoxicity assay, 72 hours. The experiment is classed as cell-based. Conditions: Homo sapiens, CFPAC-1, 72 hours, prodrugs as nanoparticle dispersions. How it is done:
(§1) The cytotoxicity of gemcitabine nanoparticles dispersion made from gemcitabine amphiphiles in the presence or absence of DMPC-cholesterol was evaluated in comparison to gemcitabine alone in several pancreatic cell lines including CF Pac-1, BxPC3, Panc-1 and MIA PaCa-2, MCF7and CACO2 cell lines. The cell lines were exposed to media with varying concentrations of the treatments (100-0.001 μM) and incubated for 72 hours. Cell viability was determined using the MTS assay and was conducted in triplicate to derive the IC50 values.
Background: Tetrazolium dyes change colour on reduction, which living cells bring about.

A further experiment relates to CACO2 cell line. The experiment in a line: MTS cytotoxicity assay, 72 hours. Type of experiment: cell-based. Conditions: Homo sapiens, Caco-2, CACO2, 72 hours, prodrugs as nanoparticle dispersions. The protocol: as §1
For a further experiment, the system named is PANC-1 cell line. The experiment in a line: MTS cytotoxicity assay, 72 hours. The experiment is classed as cell-based. Conditions: Homo sapiens, PANC-1, 72 hours. The protocol:
as §1

In the next experiment the test system is MCF7 cell line. The experiment in a line: MTS cytotoxicity assay, 72 hours. Type of experiment: cell-based. The conditions noted are these: Homo sapiens, MCF7, 72 hours, prodrugs as nanoparticle dispersions. The protocol: as §1
A further experiment concerns BxPC3 cell line. As to the kind of experiment: MTS cytotoxicity assay, 72 hours. The experiment is classed as cell-based. Conditions: Homo sapiens, BXPC-3, BxPC3, 72 hours. The protocol: as §1
For another experiment, the system named is MIAPaCa-2 cell line. The experiment in a line: MTS cytotoxicity assay, 72 hours. Type of experiment: cell-based. Conditions: Homo sapiens, MIA PaCa-2, MIAPaCa-2, 72 hours. The protocol:
as §1

For experiment [3], the system named is CFPAC-1 cell line-derived xenograft. As to the kind of experiment: In vivo tumour inhibition, CFPAC-1 xenograft. Further details: species or system mice. How it is done:
All treatments were administered via IV injection twice a week for four weeks. The amount of gemcitabine administered in the Gem nanoparticles was 4.45 mg/kg, which is an order of magnitude less than the ordinary dose used in clinic. The doses were equimolar with the gemcitabine control group in order to allow for a direct comparison of the anti-tumour efficacy between groups. The amount of total lipid injected was 1 mg/dose. Gemcitabine is administered intravenously at a dose of 1000 mg/m2 to treat pancreatic cancer in humans. The dose administered here is equivalent to 13.35 mg/m2 of gemcitabine being injected into humans; 1.33% of the clinical dose of gemcitabine in humans. In other studies, the amount of gemcitabine injected into mice in vivo studies has ranged from 7-100 mg/kg.
At the end of the study, the tumours were harvested.

Where two headings read alike, the source gives them in different places. Where only a bound is given, the exact number is not on record here.

What is called IC50 is the concentration that inhibits the measured activity by half. Regarding `Nc1ccn([C@@H]2O[C@H](CO)[C@@H](O)C2(F)F)c(=O)n1` [Gemcitabine, 2′,2′-difluoro-2′-deoxycytidine], the IC50 in the experiment on CFPAC-1 cell line [1] is 0.0061 to 0.033 µM; with CFPAC-1 cell line [2], 0.065 µM; with CACO2 cell line it was 0.05 µM; with PANC-1 cell line, over 100 µM; in the experiment with MCF7 cell line it was 0.006 µM; with BxPC3 cell line, 0.0225 µM. The molecule further returned an IC50 with MIAPaCa-2 cell line of 0.023 µM. Besides, the “Tumour size trend over time” value in experiment [3] (4.45 mg/kg gemcitabine equimolar, IV twice a week for four weeks) was “increased in size, however at a slower rate compared with the control PBS group”. Also, in experiment [3] (4.45 mg/kg gemcitabine equimolar, IV twice a week for four weeks, 34 days), the “Tumour volume as % of control tumour size” value came out at 54%. In addition, in experiment [3] (end of study, control vs nanoparticles p<0.05), the “Average ex-vivo tumour weight, order of groups” value is “control group>Gemcitabine group>Gemcitabine nanoparticles”.

The record behind these values is US12503483B2, “Gemcitabine amphiphile prodrugs” (NANOMED HOLDINGS PTY LTD, priority 2018, dated 2025).
